According to ChEMBL document CHEMBL5625228, “Design, synthesis, and bioactivity evaluation of novel amide/sulfonamide derivatives as potential anti-inflammatory agents against acute lung injury and ulcerative colitis” (Eur J Med Chem, 2023):
Calls of active or inactive are those of the source. No cut-off for these calls is given here.

Key:
[1] = Clearance in Sprague-Dawley rat at 1 mg/kg, iv measured upto 24 hrs by LC-MS analysis; type: ADME, organism-based; conditions: in vivo
[2] = Half life in Sprague-Dawley rat at 10 mg/kg, po measured upto 24 hrs by LC-MS analysis; type: ADME, organism-based; conditions: in vivo
[3] = AUC (0 to infinity) in Sprague-Dawley rat at 1 mg/kg, iv measured upto 24 hrs by LC-MS analysis; type: ADME, organism-based; conditions: in vivo
[4] = system: Mus musculus; assay: Antiinflammatory activity against LPS-induced acute lung injury C57BL/6 mouse model assessed as decrease in TNF-alpha mRNA level in lung at 20 mg/kg, IG preincubated with compound for 30 mins followed by LPS-induction and measured after 6 hrs by qPCR analysis; type: functional, organism-based; conditions: time 390.0 min
[5] = Clearance in Sprague-Dawley rat at 10 mg/kg, po measured upto 24 hrs by LC-MS analysis; type: ADME, organism-based; conditions: in vivo
[6] = Cmax in Sprague-Dawley rat at 1 mg/kg, iv measured upto 24 hrs by LC-MS analysis; type: ADME, organism-based; conditions: in vivo
[7] = system: Mus musculus; assay: Antiinflammatory activity against LPS-induced acute lung injury C57BL/6 mouse model assessed as lung tissue destruction at 20 mg/kg, IG preincubated with compound for 30 mins followed by LPS-induction and measured after 6 hrs by H and E staining based analysis; type: functional, organism-based; conditions: time 390.0 min
[8] = AUC (0 to infinity) in Sprague-Dawley rat at 10 mg/kg, po measured upto 24 hrs by LC-MS analysis; type: ADME, organism-based; conditions: in vivo
[9] = system: Mus musculus; assay: Antiinflammatory activity against LPS-induced acute lung injury C57BL/6 mouse model assessed as suppression of IL-6 level in BALF at 20 mg/kg, IG preincubated with compound for 30 mins followed by LPS-induction and measured after 6 hrs by ELISA analysis; type: functional, organism-based; conditions: time 390.0 min
[10] = Tmax in Sprague-Dawley rat at 1 mg/kg, iv measured upto 24 hrs by LC-MS analysis; type: ADME, organism-based; conditions: in vivo
[11] = system: Mus musculus; assay: Antiinflammatory activity against LPS-induced acute lung injury C57BL/6 mouse model assessed as reduction in protein concentration in BALF at 20 mg/kg, IG preincubated with compound for 30 mins followed by LPS-induction and measured after 6 hrs; type: functional, organism-based; conditions: time 390.0 min
[12] = system: J774.A1; assay: Antiinflammatory activity against LPS-induced mouse J774.A1 cells assessed as reduction in p65 nuclear translocation at 20 uM incubated for 2 hrs by DAPI staining based immunofluorescence analysis; type: functional, cell-based
[13] = Oral bioavailability in Sprague-Dawley rat at 10 mg/kg measured upto 24 hrs by LC-MS analysis; type: ADME, organism-based; conditions: in vivo
[14] = system: Mus musculus; assay: Antiinflammatory activity against LPS-induced acute lung injury C57BL/6 mouse model assessed as decrease in IL-6 mRNA level in lung at 20 mg/kg, IG preincubated with compound for 30 mins followed by LPS-induction and measured after 6 hrs by qPCR analysis; type: functional, organism-based; conditions: time 390.0 min
[15] = system: J774.A1; assay: Antiinflammatory activity against LPS-induced mouse J774.A1 cells assessed as downregulation of TNF-alpha mRNA level preincubated with compound for 30 mins followed by LPS-induction and measured after 6 hrs by qPCR analysis; type: functional, cell-based; conditions: time 390.0 min
[16] = Apparent volume of distribution in Sprague-Dawley rat at 10 mg/kg, po measured upto 24 hrs by LC-MS analysis; type: ADME, organism-based; conditions: in vivo
[17] = system: Mus musculus; assay: Antiinflammatory activity against DSS-induced acute colitis C57BL/6 mouse model assessed as reduction in mucosal damage in colon at 5 mg/kg, po pretreated with DSS for 7 days followed by compound addition for every day for 10 days by H and E staining based analysis; type: functional, organism-based; conditions: time 10.0 day
[18] = system: J774.A1; assay: Antiinflammatory activity against LPS-induced mouse J774.A1 cells assessed as downregulation of IL-6 mRNA level preincubated with compound for 30 mins followed by LPS-induction and measured after 6 hrs by qPCR analysis; type: functional, cell-based; conditions: time 390.0 min
[19] = system: Mus musculus; assay: Antiinflammatory activity against DSS-induced acute colitis C57BL/6 mouse model assessed as reduction in splenomegaly at 5 mg/kg, po pretreated with DSS for 7 days followed by compound addition for every day for 10 days; type: functional, organism-based; conditions: time 10.0 day
[20] = system: J774.A1; assay: Antiinflammatory activity against mouse J774.A1 cells assessed as inhibition of LPS-induced TNF-alpha release preincubated with compound for 30 mins followed by LPS-induction and measured after 24 hrs by ELISA analysis; type: functional, cell-based
[21] = system: J774.A1; assay: Antiinflammatory activity against mouse J774.A1 cells assessed as inhibition of LPS-induced TNF-alpha production pretreated with compound for 30 mins followed by LPS induction and measured after 24 hrs by ELISA analysis; type: functional; conditions: time 1470 min; 24.5 h
[22] = system: Mus musculus; assay: Antiinflammatory activity against LPS-induced acute lung injury C57BL/6 mouse model assessed as alveolar septa thickness in lung at 20 mg/kg, IG preincubated with compound for 30 mins followed by LPS-induction and measured after 6 hrs by H and E staining based analysis; type: functional, organism-based; conditions: time 390.0 min
[23] = system: Mus musculus; assay: Antiinflammatory activity against LPS-induced acute lung injury C57BL/6 mouse model assessed as pulmonary congestion in lung at 20 mg/kg, IG preincubated with compound for 30 mins followed by LPS-induction and measured after 6 hrs by H and E staining based analysis; type: functional, organism-based; conditions: time 390.0 min
[24] = system: Mus musculus; assay: Antiinflammatory activity against LPS-induced acute lung injury C57BL/6 mouse model assessed as reduction in pulmonary edema by measuring lung wet to dry ratio at 20 mg/kg, IG pretreated with compound for 30 mins followed by LPS-induction and measured after 6 hrs; type: functional, organism-based; conditions: time 390.0 min
[25] = system: Mus musculus; assay: Antiinflammatory activity against DSS-induced acute colitis C57BL/6 mouse model assessed as reduction in crypt necrosis in colon at 5 mg/kg, po pretreated with DSS for 7 days followed by compound addition for every day for 10 days by H and E staining based analysis; type: functional, organism-based; conditions: time 10.0 day
[26] = Apparent volume of distribution in Sprague-Dawley rat at 1 mg/kg, iv measured upto 24 hrs by LC-MS analysis; type: ADME, organism-based; conditions: in vivo, read-out: Vz
[27] = system: Mus musculus; assay: Antiinflammatory activity against LPS-induced acute lung injury C57BL/6 mouse model assessed as suppression of IL-6 level in serum at 20 mg/kg, IG preincubated with compound for 30 mins followed by LPS-induction and measured after 6 hrs by ELISA analysis; type: functional, organism-based; conditions: time 390.0 min
[28] = AUC (0 to t) in Sprague-Dawley rat at 10 mg/kg, po measured upto 24 hrs by LC-MS analysis; type: ADME, organism-based; conditions: in vivo
[29] = Tmax in Sprague-Dawley rat at 10 mg/kg, po measured upto 24 hrs by LC-MS analysis; type: ADME, organism-based; conditions: in vivo
[30] = system: Mus musculus; assay: Antiinflammatory activity against DSS-induced acute colitis C57BL/6 mouse model assessed as reduction in IL-6 level in serum at 5 mg/kg, po pretreated with DSS for 7 days followed by compound addition for every day for 10 days by ELISA analysis; type: functional, organism-based; conditions: time 10.0 day
[31] = Half life in Sprague-Dawley rat at 1 mg/kg, iv measured upto 24 hrs by LC-MS analysis; type: ADME, organism-based; conditions: in vivo
[32] = system: J774.A1; assay: Antiinflammatory activity against mouse J774.A1 cells assessed as inhibition of LPS-induced IL-6 release preincubated with compound for 30 mins followed by LPS-induction and measured after 24 hrs by ELISA analysis; type: functional, cell-based
[33] = system: Mus musculus; assay: Antiinflammatory activity against LPS-induced acute lung injury C57BL/6 mouse model assessed as inflammatory infiltration in lung at 20 mg/kg, IG preincubated with compound for 30 mins followed by LPS-induction and measured after 6 hrs by H and E staining based analysis; type: functional, organism-based; conditions: time 390.0 min
[34] = AUC (0 to t) in Sprague-Dawley rat at 1 mg/kg, iv measured upto 24 hrs by LC-MS analysis; type: ADME, organism-based; conditions: in vivo

- clearance [1]: 15 mL/min/kg
- half-life [2]: 7.1 h
- AUC(0-inf) [3]: 1120 ng·h/mL
- clearance [5]: 150 mL/min/kg
- Cmax [6]: 1320 ng/mL
- AUC [8]: 1183.5 ng·h/mL
- Tmax [10]: 8.4 min
- bioavailability [13]: 10.6%
- Vz [16]: 80 L/kg
- IC50 [20]: 4.34 µM
- Vd [26]: 2.3 L/kg
- AUC(0-t) at 24 h [28]: 1060 ng·h/mL
- Tmax [29]: 2.8 h
- half-life [31]: 1.8 h
- IC50 [32]: 0.61 µM
- AUC(0-t) at 24 h [34]: 1110 ng·h/mL
Structure (SMILES): O=[N+]([O-])c1ccc(N2CCN(c3ccc(S(=O)(=O)NCc4ccccn4)cc3[N+](=O)[O-])CC2)cc1
- Activity [4]: Active
- Activity [7]: Active
- Activity [9]: Active
- Activity [11]: Active
- Activity [12]: Active
- Activity [14]: Active
- Activity [15]: Active
- Activity [17]: Active
- Activity [18]: Active
- Activity [19]: Active
- inhibition (INH) [21]: 70.09%
- Activity [22]: Active
- Activity [23]: Active
- Activity [24]: Active
- Activity [25]: Active
- Activity [27]: Active
- Activity [30]: Active
- Activity [33]: Active
